Source: patent publication US20120277517A1, “Formulation and Methods for Enhanced Interventional Image-Guided Therapy of Cancer” (The Johns Hopkins University, priority 2011, published 2012)

Test system: Hep3B cells
Experiment: Intratumoral injection with or without AMF hyperthermia in mice with subcutaneous Hep3B tumors
Format: in vivo, mouse
Conditions: may be attributed to hyperthermia
Description: In another exemplary experiment, Hep3B cells were implanted by subcutaneous injection of 3×10^6 Hep3B cells suspended in PBS into the right flank of each mouse that was randomly assigned into 2 main groups (heated and unheated) that were further divided into three subgroups. When tumors reached 100 mm^3, these received intratumoral injections of T-C formulation, BNF particles alone, or PBS (3 subgroups). The heated group (9 mice) received AMF hyperthermia. Two mice from each subgroup were euthanized 24 hours following treatment, and the remaining one was euthanized when tumor in the PBS group reached 2000 mm^3.
For AMF exposure, each mouse was placed in a chamber constructed from a standard polypropylene 50-mL conical centrifuge tube that was positioned in the center of the solenoid coil. Prior to AMF therapy, each mouse received intraperitoneal injections of ketamine/xylazine (anesthesia) at an approximate dose of a 200-μL injection. Each mouse was placed in the coil for 30 min and exposed to one of the following AMF amplitudes: 0, 24, or 60 kA/m. […] During AMF exposure, mice were placed into the AMF inductor coil and therefore exposed to maximum magnetic field, corresponding to the measured (by field probe) field. Rectal and tumor temperatures were measured at one-second intervals for each mouse exposed to AMF using fiber optic temperature probes.

- degradation of doxorubicin: 7-8%
SMILES: COc1cccc2c1C(=O)c1c(O)c3c(c(O)c1C2=O)C[C@@](O)(C(=O)CO)C[C@@H]3O[C@H]1C[C@H](N)[C@H](O)[C@H](C)O1 [doxorubicin]
